In PubChem BioAssay (NCI):
Several values for one entry are separate records, joined by “and”; a condition that tells them apart may be missing. Equal entries are not always repeated.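 Following 48 hours of exposure in 96-well plates, responses at five concentrations were used to interpolate endpoints linearly. GI50 = concentration required for 50% inhibition of growth. TGI denotes the concentration required for complete inhibition of growth.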

Assays:
Assay in all cases: DTP human tumour cell line panel, 48 h
A498 renal = system: A498 renal
EKVX NSCLC = system: EKVX NSCLC
K-562 leukemia = system: K-562 leukemia
M14 melanoma = system: M14 melanoma
OVCAR-4 ovarian = system: OVCAR-4 ovarian
SNB-75 CNS = system: SNB-75 CNS
SR leukemia = system: SR leukemia
UO-31 renal = system: UO-31 renal
RPMI-8226 leukemia = system: RPMI-8226 leukemia
DU-145 prostate = system: DU-145 prostate

Row | SMILES | TGI (A498 renal) [µM] | TGI (EKVX NSCLC) | TGI (K-562 leukemia) [µM] | TGI (M14 melanoma) [µM] | TGI (OVCAR-4 ovarian) | TGI (SNB-75 CNS) | TGI (SR leukemia) [µM] | TGI (UO-31 renal) [µM] | TGI (RPMI-8226 leukemia) [µM] | GI50 (EKVX NSCLC) [µM] | GI50 (K-562 leukemia) [µM] | GI50 (OVCAR-4 ovarian) [µM] | GI50 (SNB-75 CNS) [µM] | TGI (DU-145 prostate) [µM] | GI50 (A498 renal) [µM] | GI50 (DU-145 prostate) [µM] | GI50 (M14 melanoma) [µM] | GI50 (RPMI-8226 leukemia) [µM] | GI50 (SR leukemia) [µM] | GI50 (UO-31 renal) [µM]
1 | COC(=O)C#CCC1CCCC1C1SCCS1 (stereo unspecified) | > 100 | > 100 µM | > 100 | > 100 | > 100 µM | > 100 µM | 84.3 | > 100 |  |  |  |  |  |  |  |  |  |  |  | 
2 | O=C(COc1ccc(Cl)cc1)N1CCN(C(=O)COc2ccc(Cl)cc2)c2ccccc21 | > 100 | > 100 µM | > 100 |  |  | > 100 µM |  | 53.9 | > 100 |  |  |  |  |  |  |  |  |  |  | 
3 | COc1cccc2c1[C@H]1CO[C@H]3C4C[C@H](C(=O)O)C([C@@H](C2)N13)N4C (stereo partly specified) |  | 5.94 µM and 6.16 µM |  | 6.35 | 8.21 µM and 10.5 µM | 4.85 µM and 3.53 µM | 8.55 | 7.72 |  | 1.87 | 0.397 | 0.99 | 0.809 |  |  |  |  |  |  | 
4 | NCCC(=O)NC(Cc1cnc[nH]1)C(=O)O (stereo unspecified) |  | > 100 µM | > 100 | > 100 | > 100 µM | > 100 µM |  | > 100 | > 100 |  |  |  |  | > 100 |  |  |  |  |  | 
5 | COc1cc(C2CC(=O)Nc3c2cc(Br)c2ccccc32)cc(Br)c1OC (stereo unspecified) | 3.29 |  | 20.5 | > 100 | 1.44 µM | 2.52 µM | 1.77 |  | > 100 |  | 0.493 | 0.349 | 0.998 | > 100 | 1 | 6.38 | 1.08 | 3.71 | 0.416 | 
6 | O=C(NCC(=O)N1CCOC1=O)OCc1ccccc1 | > 100 | > 100 µM | > 100 | > 100 | > 100 µM | > 100 µM |  | > 100 | > 100 |  |  |  |  |  |  |  |  |  |  | 
7 | COc1ccc2c(c1)C(=O)c1c-2c(N2CCNCC2)nc2ccccc12 | 21.1 | 17.5 µM | > 100 | 3.51 | 27.1 µM | 26.5 µM |  | 6.66 | 3.39 | 4.65 | 2.64 | 9.93 | 10.9 | 4.73 | 7.4 | 1.89 | 1.91 | 1.64 |  | 2.29
8 | CCCCCCCCCCCCCP(=O)(NCC(N)=O)OCC (stereo unspecified) | 95.7 | 41 µM |  | 30.6 | 32.2 µM | 19.9 µM |  | 27.1 |  |  |  |  |  |  |  |  |  |  |  | 
9 | O=C(O)[C@@H](NS(=O)(=O)c1ccc2ccccc2c1)c1ccccc1 | > 100 |  | > 100 | > 100 | > 100 µM | > 100 µM |  | > 100 | > 100 |  |  |  |  |  |  |  |  |  |  | 
10 | O=C(CCc1nc(=S)[nH][nH]1)Nc1cccc(C(F)(F)F)c1 | > 100 | > 100 µM | > 100 | > 100 | > 100 µM | > 100 µM | > 100 | > 100 | > 100 |  |  |  |  |  |  |  |  |  |  | 
11 | N.N.N.N.N.O=S(=O)([O-])C(F)(F)F.O=S(=O)([O-])C(F)(F)F.[Os+8] | 29.5 | > 100 µM | 61.5 | 28.7 |  | 28.5 µM |  | 30.7 | > 100 | 43.6 | 7.51 |  | 11.1 |  | 12 |  | 14.2 | 8.7 |  | 12.8
12 | CC(=O)NNc1nc(C)c(C(=O)/C=C/c2ccc(/C=C/C(=O)c3sc(NNC(C)=O)nc3C)cc2)s1 |  | > 100 µM | > 100 | > 100 | > 100 µM |  | > 100 | > 100 |  |  |  |  |  |  |  |  |  |  |  | 
13 | Cc1ccc(Sc2oc(-c3ccc(C)cc3)nc2[P+](c2ccccc2)(c2ccccc2)c2ccccc2)cc1 | 0.842 | 1.26 µM | 1.52 | 1.57 | 1.43 µM | 0.846 µM |  | 0.935 | 1.35 | 0.296 | 0.302 | 0.28 | 0.154 | 1.48 | 0.152 | 0.416 | 0.403 | 0.308 |  | 0.24
14 | COC1(C)C(=O)N2C1N(C(=O)OCc1ccccc1)CC2(C)C (stereo unspecified) | > 100 | > 100 µM | > 100 | > 100 | > 100 µM | > 100 µM | > 100 | > 100 | > 100 |  |  |  |  |  |  |  |  |  |  | 
15 | Cc1cc(C)nc(NS(=O)(=O)c2ccc(NC(=O)c3cccn4c(=O)c5ccccc5nc34)cc2)n1 |  | 99.7 µM | > 100 | > 100 | 68.3 µM | > 100 µM | > 100 | 74.7 |  |  |  |  |  |  |  |  |  |  |  | 
16 | CN1CCc2c1nc(-c1cccnc1)c1c2N(C)CC1 | > 100 | > 100 µM | > 100 | > 100 | > 100 µM | > 100 µM |  | > 100 | > 100 |  |  |  |  |  |  |  |  |  |  | 
17 | O=c1c(-c2ccccc2)coc2cc(OC/C(=N/O)c3ccc(F)cc3)ccc12 |  | 26.1 µM | > 100 | 41.3 | 59.3 µM | 92.9 µM |  | 50.2 | 59.7 | 8.59 | 16.2 | 13.7 | 16.8 | 36 |  | 17.4 | 17.5 | 18.8 |  | 17.4
18 | OCc1ccc(N2CCCC2)cc1Cl | 0.289 |  | > 100 | > 100 | 12.3 µM | > 100 µM | > 100 | 50 | > 84.5 |  | 8.18 | 1.83 | 24.5 | > 100 | 0.147 | 34.4 | > 100 | 6.22 | 46.2 | 17.2
19 | CCN(CC)CCCC(C)Nc1c(Sc2cnc3cc(Cl)ccc3c2NC(C)CCCN(CC)CC)cnc2cc(Cl)ccc12 (stereo unspecified) | 3.31 |  | 3.7 | 3.29 | 3.22 µM | 2.98 µM |  | 35.5 | 4.55 |  |  |  |  |  |  |  |  |  |  | 
20 | COCCOCOC(C)(C)[C@H](CCOC(C)=O)O[Si](c1ccccc1)(c1ccccc1)C(C)(C)C | 68.4 | > 100 µM | 28.8 | 49.4 | > 100 µM | > 100 µM | 14 | 36.9 | 15.1 |  |  |  |  |  |  |  |  |  |  | 
21 | COc1cc(/C=C\c2ccncc2)cc(OC)c1OC | > 100 | > 100 µM | > 100 | > 100 | > 100 µM | > 100 µM |  | > 100 | > 100 |  |  |  |  |  |  |  |  |  |  | 
